What was measured:
PCTC #1 = test: ELISA of global DNA methylation (5-methylcytosine); assay type: cell-based, human; conditions: PCTC #1 treated during 30 days
Excerpt: DNA was extracted by using the QiaAmp DNA mini Kit (Qiagen, France). Next, global DNA methylation was estimated by quantifying the presence of 5-methylcytosine using Methylamp Global DNA methylation Quantification kit (Euromedex-Epigentek, France) according to the manufacturers's instructions.
The analysis of all interactions being impossible, we postulated that if P1 inhibited a large number of DNMT3A/D3A-BP interactions, an hypomethylation phenotype would be observable. To observe the putative P1-induced DNA hypomethylation, PCTC #1 were treated during 30 days with P1 (data not shown). Other DNMT inhibitors (5-aza-2-deoxycytidine (5-aza), theaflavin 3,3 digallate (a DNMT3A inhibitor, hereafter called TFD), or peptides (UP peptide, a peptide inhibiting the DNMT1/PCNA/UHRF1 interactions)) were also used as control conditions.

ZR-75-1 = conditions: non-invasive breast cancer cell line ZR-75-1; cited from earlier work
MCF-7 cells = conditions: non-invasive breast cancer cell line MCF-7; cited from earlier work
[1] = system: primary cultured tumor cells (PCTC) from GBM; test: Migration assay, scratch test; assay type: cell-based, human; conditions: 24 hours, mitomycin C pre-treatment
Description: Cell migration assay was performed using a scratch technique. Cells were plated in 6-well plates at 80-90%, and were treated with 10 μg/ml mitomycin C (Sigma, France) for 2 hours (in order to remove the influence of cell proliferation). Cells were then scratched. Cell migration was monitored by microscopy. The images acquired for each sample were analyzed quantitatively. For each image, distances between one side of scratch and the other were measured. By comparing the images from time 0 to the last time point (24 hours), we obtain the distance of each scratch closure on the basis of the distances that are measured.
Impact of the P1-induced disruption of the DNMT3A/ISGF3γ interactions on migration capability was next estimated by performing a scratch test assay.

[2] = system: primary cultured tumor cells (PCTC) from GBM; test: Temozolomide+irradiation-induced cell death (trypan blue); assay type: cell-based, human; conditions: temozolomide 25 μM and irradiation 2 Gy
Description: Percentages of cell death were evaluated by using a Trypan Blue Stain 0.4%, and the Countess® Automated Cell Counter (Life Technologies, France). Cell death was induced using temozolomide (25 μM) and irradiation (2 Gy) such as previously described.
To evaluate the impact of the P1-induced disruption of the DNMT3A/ISGF3γ interactions on the sensitivity of apoptosis induced by a therapeutic treatment, we measured the percentage of temozolomide+irradiation-induced cell death since temozolomide (TMZ) and irradiation are conjugated in anti-GBM treatment [Cheray M et al., 2013 and Louis D et al., 2007]. […] Thus, we conclude that P1 acts as a sensitizer of the temozolomide+irradiation-induced cell death.

[3] = system: primary cultured tumor cells (PCTC) from GBM; test: Collagen-based cell invasion assay; parameters: species or system human; conditions: 72 h incubation
Description: All of the procedures were followed according to the manufacturer's instructions (QCM 24-Well Collagen-Based Cell Invasion Assay, Millipore, France). In brief, 200 μl serum-free medium containing 2×10^5 cells were seeded into the invasion chamber and placed into the 24 well plate containing 500 μl complete medium. After 72 h incubation at 37° C., media was removed from the chamber, and cells were stained by putting the chamber in staining solution for 20 min at room temperature. Non-invaded cells were carefully removed from the top-side of the chamber. Stained chamber was inserted into a clean well containing 200 μl of extraction buffer for 15 min at room temperature. 100 μl extracted stained solution from the chamber was transferred into the 96 well plate and optical density was measured at 560 nm with a spectrophotometer.

[4] = system: primary cultured tumor cells (PCTC) from GBM; test: Proliferation assay, doubling time; assay type: cell-based, human; conditions: counted every 24 h over 120 h
Description: Doubling time (i.e. the period of time required for a quantity to double in size) was calculated by using the Doubling Time Online Calculator website (Roth V. 2006, http://www.doubling-time.com/compute.php) and counting the proliferation of […] over 120 hours. Cell number was determined, every 24 h over 120 h, using the Countess® Automated Cell Counter (Life Technologies, France).
To estimate the impact of the P1-induced disruption of DNMT3A/ISGF3γ interactions on proliferation, we calculated the doubling time.

[5] = biological target: T1, DNMT3A/ISGF3γ interaction (Homo sapiens, UniProt Q00978); test: Competitive pull-down assay of the DNMT3A/ISGF3γ interaction; assay type: binding; conditions: for inhibition of the DNMT3A/ISGF3γ interaction: peptides pre-incubated 1 h at 37° C., FIG. 2A
T1 construct: GST
T1 sequence (Q00978 1-393): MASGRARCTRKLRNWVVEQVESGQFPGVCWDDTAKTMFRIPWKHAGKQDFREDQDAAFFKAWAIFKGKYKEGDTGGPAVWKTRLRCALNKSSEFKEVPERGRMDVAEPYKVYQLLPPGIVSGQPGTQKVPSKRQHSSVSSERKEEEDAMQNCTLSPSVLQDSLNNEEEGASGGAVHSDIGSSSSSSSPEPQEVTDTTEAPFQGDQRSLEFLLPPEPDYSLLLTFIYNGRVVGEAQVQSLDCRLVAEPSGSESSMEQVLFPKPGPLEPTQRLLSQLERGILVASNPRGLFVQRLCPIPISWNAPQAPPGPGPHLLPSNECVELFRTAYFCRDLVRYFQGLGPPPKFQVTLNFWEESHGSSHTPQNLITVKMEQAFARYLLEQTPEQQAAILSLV
Description: Pull-down assays were performed by using the GST/His Tagged-Protein Interaction Pull-Down Kits (Thermo Scientific, France). Briefly, 100 μg of bait protein were immobilized on column via an incubation at 4° C. for 1 h with gentle mixing. After washing, 1 μg of prey protein was added for 1 h at 4° C. with gentle rocking motion on a rotating platform. After washes and elution, the “bait-prey” interaction was analyzed by SDS-PAGE and Western blot methods. Competitive pull-down experimentations were realized by pre-incubating considered peptides for 1 h at 37° C.
In brief, proteins were size fractionated by sodium dodecyl sulfate-polyacrylamide gel electrophoresis. Proteins were transferred onto nitrocellulose or PVDF membrane. Saturation and blotting were realized by using SNAP I.™ Protein Detection System (Millipore, France). The detection of proteins was performed using ECL™ (Amersham Biosciences, France) and/or SuperSignal west femto Maximum Sensitivity (Thermo Scientific, France) chemilumenescence reagents. The detection of proteins was performed using the FusionX7 Imager (Fisher Scientific, France).

[6] = biological target: T2, DNMT3A/ISGF3γ interactions (Homo sapiens, UniProt Q00978); test: Proximity Ligation In Situ Assay (P-LISA) in PCTC #1, DNMT3A/ISGF3γ; assay type: cell-based; conditions: PCTC #1, P-LISA 12 hr after electroporation of peptide
T2 construct: we used a PCTC (named PCTC #1); endogenous in cells; host or cells: PCTC #1 (primary cultured glioblastoma tumor cells)
T2 sequence (Q00978 1-393): T1 sequence (Q00978 1-393)
Description: Cells were cultured for 24 h on cover slip. Cells were then fixed with 4% paraformaldehyde in PBS pH7.4 for 15 min at room temperature. Permeabilization is performed with PBS containing 0.5% Triton X-100 for 20 min at room temperature. Blocking, staining, hybridization, ligation, amplification and detection steps were realized according to manufacturer's instructions (Olink Bioscience, Sweden). All incubations were performed in a humidity chamber. Amplification and detection steps were performed in dark room. Fluorescence was visualized by using the Axiovert 200M microscopy system (Zeiss, Le Pecq, France) with ApoTome module (X63 and numerial aperture 1.4). Preparations were mounted by using ProLong Gold antifade reagent with DAPI (Life Technologies, France). Pictures acquisition was realized in structured illumination microscopy. After decovolving (3.5 Huygens Essential software (SVI)), 3D view was obtained by using Amira.4.1.1 program. Finally, the images were analyzed by using the freeware “BlobFinder” available for download from www.cb.uu.se/˜amin/BlobFinder. Thus, we obtained either number of signals per nuclei since nuclei can be automatically identified.
(§1) For electroporation, NLS sequence was added to peptides. […] Electroporation efficiency for each cell line was initially determined by flow cytometry by uptake of the fluorescent dye, lucifer yellow (Sigma, France). […]

DNMT3A/GATA1 interaction = biological target: T3, DNMT3A/GATA1 interaction (Homo sapiens, UniProt P15976); test: P-LISA in PCTC #1, DNMT3A/GATA1; assay type: cell-based
T3 construct: endogenous in cells; host or cells: PCTC #1 (primary cultured glioblastoma tumor cells)
T3 sequence (P15976 whole entry): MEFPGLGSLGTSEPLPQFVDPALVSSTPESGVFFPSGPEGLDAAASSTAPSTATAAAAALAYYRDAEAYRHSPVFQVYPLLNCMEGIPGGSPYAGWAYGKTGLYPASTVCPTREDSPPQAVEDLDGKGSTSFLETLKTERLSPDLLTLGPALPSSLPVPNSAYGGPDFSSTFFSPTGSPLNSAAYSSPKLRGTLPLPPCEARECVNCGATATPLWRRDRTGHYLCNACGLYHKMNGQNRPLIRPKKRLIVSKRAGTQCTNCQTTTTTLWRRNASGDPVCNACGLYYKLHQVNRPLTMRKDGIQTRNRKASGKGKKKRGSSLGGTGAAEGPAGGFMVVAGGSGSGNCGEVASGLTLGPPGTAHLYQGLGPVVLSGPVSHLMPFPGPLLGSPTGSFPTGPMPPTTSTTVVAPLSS
Description: (§2) Cells were cultured for 24 h on cover slip. Cells were then fixed with 4% paraformaldehyde in PBS pH7.4 for 15 min at room temperature. Permeabilization is performed with PBS containing 0.5% Triton X-100 for 20 min at room temperature. Blocking, staining, hybridization, ligation, amplification and detection steps were realized according to manufacturer's instructions (Olink Bioscience, Sweden). All incubations were performed in a humidity chamber. Amplification and detection steps were performed in dark room. Fluorescence was visualized by using the Axiovert 200M microscopy system (Zeiss, Le Pecq, France) with ApoTome module (X63 and numerial aperture 1.4). Preparations were mounted by using ProLong Gold antifade reagent with DAPI (Life Technologies, France). Pictures acquisition was realized in structured illumination microscopy. […] Finally, the images were analyzed by using the freeware “BlobFinder” available for download from www.cb.uu.se/˜amin/BlobFinder. […]
as §1
(§3) P1 was designed to inhibit the DNMT3A/ISGF3γ interactions. […] To investigate this point, we analyzed the effect of P1 on the DNMT3A/D3A-BP interactions of interest. […]

DNMT3A/HDAC1 interaction = biological target: T4, DNMT3A/HDAC1 interaction (Homo sapiens, UniProt Q13547); test: P-LISA in PCTC #1, DNMT3A/HDAC1; assay type: cell-based
T4 construct: endogenous in cells; host or cells: PCTC #1 (primary cultured glioblastoma tumor cells)
T4 sequence (Q13547 whole entry): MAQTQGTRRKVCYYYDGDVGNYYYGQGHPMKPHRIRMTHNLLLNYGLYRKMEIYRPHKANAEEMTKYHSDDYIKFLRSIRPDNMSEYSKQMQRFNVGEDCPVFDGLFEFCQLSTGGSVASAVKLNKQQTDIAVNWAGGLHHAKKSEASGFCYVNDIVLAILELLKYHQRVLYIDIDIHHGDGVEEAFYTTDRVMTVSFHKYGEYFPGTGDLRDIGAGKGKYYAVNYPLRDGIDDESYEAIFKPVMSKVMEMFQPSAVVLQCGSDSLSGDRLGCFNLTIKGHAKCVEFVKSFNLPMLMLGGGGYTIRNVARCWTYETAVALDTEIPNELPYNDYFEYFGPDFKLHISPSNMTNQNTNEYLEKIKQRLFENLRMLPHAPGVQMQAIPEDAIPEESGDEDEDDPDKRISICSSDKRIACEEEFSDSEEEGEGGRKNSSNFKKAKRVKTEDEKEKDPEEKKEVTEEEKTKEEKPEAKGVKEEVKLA
Description: as §2, §1, §3

[7] = system: PCTC-GBM glioma cells having high level of DNMT3A/ISGF3γ interactions; test: Established subcutaneous glioma tumors in swiss nude mice; assay type: in vivo; conditions: treatment from tumor volume 100 mm^3, after 3 weeks of treatment; FIG. 3B
Description: A. Design of the experiment. […] Then, mice were treated with indicated treatment. D: day, w: week, it: intra-tumoral, ip: Intraperitoneal.
B. Graph illustrates the impact of the 4 considered treatments on tumor weight of established tumors. Open circles represent mice. Black circles represent the average±standard deviation obtained for each treatment. p values were obtained by performing a t test.
Cultured cells were harvested by trypsinization, washed and resuspended in saline buffer. Cell suspensions were injected s.c. as 2.106 cells in 0.05 ml of PBS with equal volume of matrigel matrix (Becton Dickinson, France) in the flank of 7/8-week-old Nude NMRI-nu female mice (Janvier, France). After tumor establishment, mice were treated with temozolomide and/or peptides via intra-tumor injection (it). To obtain tumor weigh, each tumor was surgically removed and is weighed. All experimental procedures using animals were realized in accordance with the guidelines of Institutional Animal Care and the French National Committee of Ethics.
Standard anti-GBM treatment using temozolomide as chemotherapeutic agent, we next investigated the effect of a treatment associating P1 peptide with TMZ in a swiss nude mice model of established tumors.

MGMT = test: qMSP of MGMT methylation; assay type: cell-based, human; conditions: cells treated with peptide
Excerpt: In glioma, MGMT methylation is associated with a good responsive of anti-glioma treatment including TMZ and irradiation [Esteller M et al., 2000 and Hegi M et al., 2005].

DNMT3A/AP2γ interaction = test: P-LISA in PCTC #1, DNMT3A/AP2γ; assay type: cell-based, human
Description: as §2, §1, §3

Compound | global level of 5-methylcytosine (PCTC #1) | invasiveness (ZR-75-1) | invasiveness (MCF-7 cells) | cell migration [1] | percentage of temozolomide+irradiation-induced cell death [2] | cell invasion [3] | doubling time of cells [4] | inhibition of the DNMT3A/ISGF3γ interaction [5] | red dots representing the DNMT3A/ISGF3γ interactions [6] | integrity of the DNMT3A/GATA1 interaction (DNMT3A/GATA1 interaction) | integrity of the DNMT3A/HDAC1 interaction (DNMT3A/HDAC1 interaction) | tumor growth (tumor weight/volume) of established tumors [7] | DNMT3A/ISGF3γ interaction with increasing peptide concentration ([5]; increasing concentration of peptide, FIG. 2B) | percentage of cell death compared with the other treatment ([2]; P1 versus TDF) | methylation level of MGMT (MGMT) | integrity of the DNMT3A/AP2γ interaction (DNMT3A/AP2γ interaction)
Nc1ncn([C@H]2C[C@H](O)[C@@H](CO)O2)c(=O)n1 [5-aza, 5-aza-2-deoxycytidine] | decreased the global level of DNA methylation | increased the invasiveness | increased the invasiveness | – | – | – | – | – | – | – | – | – | – | – | – | –
O=C(O[C@@H]1Cc2c(O)cc(O)cc2O[C@@H]1c1cc(O)c(=O)c2c(O)c(O)cc([C@H]3Oc4cc(O)cc(O)c4C[C@H]3OC(=O)c3cc(O)c(O)c(O)c3)c2c1)c1cc(O)c(O)c(O)c1 [TFD, theaflavin 3,3 digallate, reference compound] | decreased the global level of DNA methylation | – | – | had no effect on cell migration | increased | promoted the cell invasion | no effect | – | – | – | – | – | – | – | – | –
RPMPRLTAQAGAPYYI (Synthetic P1mut) [P1^mut, mutated P1 peptide, reference compound] | – | – | – | – | – | – | – | does not inhibit the DNMT3A/ISGF3γ interaction | – | – | – | – | – | – | – | –
RPMPRLTFQAGDPYYI (Synthetic P1) | had not effect | – | – | decreased cell migration | increased | unmodified the cell invasion characteristic | no effect | inhibited the DNMT3A/ISGF3γ interaction | decreased | no effect | no effect | no statistical difference | decreased | higher than the one obtained with TDF | remains unchanged | no effect

Reference: patent publication US11723948B2, “Method for treating and prognosing cancer” (INSERM (INSTITUT NATIONAL DE LA SANTE ET DE LA RECHERCHE …, priority 2015, dated 2023)
